Read-outs that look alike come from different tables or passages of the source. Where no end group is shown, it is not given here.

The nature of data set [1]: Insulin icodec titration trial, CGM hypoglycaemia duration, insulin-naive T2D. The format is in vivo, human. The following applies: 4.4-7.2 mmol/L ±4 U/day.
The format of data set [2] is in vivo, human. The following applies: comparator arm.
The nature of data set [3]: SUSTAIN 10 post hoc analysis by baseline SGLT-2i. The format is in vivo, human.
Data set [4] in a line: Tirzepatide single-dose PK in hepatic impairment. The format is in vivo, human.
Data set [5] in a line: Ciprofibrate 5-week crossover study in prediabetic male volunteers. The format is in vivo, human.
In the next data set the test system is INS-1 832/13 cells. The data set is described as follows: mRNA expression in INS-1 832/13 cells under ER stress. The format is cell-based, rat.
Another data set concerns C2C12 myotubes. Kind of data set: C2-ceramide recycling and insulin response in C2C12 myotubes. The format is cell-based, mouse.
For another data set, the system named is INS1E cells. The data set is described as follows: Fatty acid toxicity in INS1E cells. The format is cell-based, rat. The settings on record: 24 h.
In the next data set the test system is male Wistar rats. The data set is described as follows: 30-min filament middle cerebral artery occlusion. The format is in vivo, rat. The following applies: 48 h after MCAO; healthy 18 points, maximal deficit 3 points.
In data set [6] the test system is primary cilium of islet beta cells. The data set is described as follows: Cilia Ca2+ imaging in mouse islets. The format is cell-based. The settings on record: GABA 1-10 nM; GABAB-receptor agonist Baclofen; Vigabatrin (inhibition of GABA degradation).
Data set [7] is described as follows: 3-month exercise training with carnosine or placebo in overweight elderly. The format is in vivo, human.
A short description of data set [8]: Contribution of HFCS-55 fructose to hepatic fatty acid synthesis, 13C/2H NMR. The format is in vivo, mouse.
A further data set deals with Arrb2-/- beta cells. Kind of data set: Incretin responses in Arrb2-/- beta cells. The format is cell-based, mouse.
The nature of data set [9]: SURPASS-2, add-on to metformin in type 2 diabetes. The format is in vivo, human. The settings on record: TZP range over 5-15 mg; SEMA 1 mg.
Data set [10] is classed as in vivo, human. The settings on record: once weekly.
The mark [11] stands for this setting: training combined with carnosine 2g/day.

For the compound insulin glargine U100 [IGlar U100], the “Overall hypoglycaemic episode duration, median (IQR)” value in data set [1] is 35.0 (20.0, 70.0) min; in data set [2], 35.0 (20.0, 60.0) min.
On to `CC[C@H](C)[C@H](NC(=O)[C@H](Cc1ccccc1)NC(=O)[C@H](CCC(=O)O)NC(=O)[C@H](CCCCNC(=O)COCCOCCNC(=O)COCCOCCNC(=O)CC[C@H](NC(=O)CCCCCCCCCCCCCCCCC(=O)O)C(=O)O)NC(=O)[C@H](C)NC(=O)[C@H](C)NC(=O)[C@H](CCC(N)=O)NC(=O)CNC(=O)[C@H](CCC(=O)O)NC(=O)[C@H](CC(C)C)NC(=O)[C@H](Cc1ccc(O)cc1)NC(=O)[C@H](CO)NC(=O)[C@H](CO)NC(=O)[C@@H](NC(=O)[C@H](CC(=O)O)NC(=O)[C@H](CO)NC(=O)[C@@H](NC(=O)[C@H](Cc1ccccc1)NC(=O)[C@@H](NC(=O)CNC(=O)[C@H](CCC(=O)O)NC(=O)C(C)(C)NC(=O)[C@@H](N)Cc1cnc[nH]1)[C@@H](C)O)[C@@H](C)O)C(C)C)C(=O)N[C@@H](C)C(=O)N[C@@H](Cc1c[nH]c2ccccc12)C(=O)N[C@@H](CC(C)C)C(=O)N[C@H](C(=O)N[C@@H](CCCNC(=N)N)C(=O)NCC(=O)N[C@@H](CCCNC(=N)N)C(=O)NCC(=O)O)C(C)C` [semaglutide], for which the results for the “Premature treatment discontinuations due to AEs” value in data set [3] (with SGLT-2i) and in data set [3] (without SGLT-2i) were 5.5% and 13.4%, respectively.
For `CC[C@H](C)[C@H](NC(=O)[C@H](CC(C)C)NC(=O)[C@H](Cc1c[nH]c2ccccc12)NC(=O)[C@H](CCC(N)=O)NC(=O)[C@@H](NC(=O)[C@H](Cc1ccccc1)NC(=O)[C@H](C)NC(=O)[C@H](CCCCNC(=O)COCCOCCNC(=O)COCCOCCNC(=O)CC[C@H](NC(=O)CCCCCCCCCCCCCCCCCCC(=O)O)C(=O)O)NC(=O)[C@H](CCC(N)=O)NC(=O)[C@H](C)NC(=O)[C@@H](NC(=O)[C@H](CCCCN)NC(=O)[C@H](CC(=O)O)NC(=O)[C@H](CC(C)C)NC(=O)C(C)(C)NC(=O)[C@@H](NC(=O)[C@H](CO)NC(=O)[C@H](Cc1ccc(O)cc1)NC(=O)[C@H](CC(=O)O)NC(=O)[C@H](CO)NC(=O)[C@@H](NC(=O)[C@H](Cc1ccccc1)NC(=O)[C@@H](NC(=O)CNC(=O)[C@H](CCC(=O)O)NC(=O)C(C)(C)NC(=O)[C@@H](N)Cc1ccc(O)cc1)[C@@H](C)O)[C@@H](C)O)[C@@H](C)CC)[C@@H](C)CC)C(C)C)C(=O)N[C@@H](C)C(=O)NCC(=O)NCC(=O)N1CCC[C@H]1C(=O)N[C@@H](CO)C(=O)N[C@@H](CO)C(=O)NCC(=O)N[C@@H](C)C(=O)N1CCC[C@H]1C(=O)N1CCC[C@H]1C(=O)N1CCC[C@H]1C(=O)N[C@@H](CO)C(N)=O` [Tirzepatide], in [4] (across all groups), the median tmax entry is given as “no change”. In addition, the “geometric least squares mean t1/2” value in data set [4] (control and hepatic impairment groups) is recorded as “similar”.
In [5] (100 mg/day for 5 weeks), `CC(C)(Oc1ccc(C2CC2(Cl)Cl)cc1)C(=O)O` (stereo not shown) [ciprofibrate] gave a Hepatic lipid content of 10.4 ± 10.0% and a Serum triglycerides of 1.57 ± 1.05 mmol/L. Also, the “Myocardial net glucose uptake” value in data set [5] (18F-FDG PET during clamp) is reported as 0.040 ± 0.024 ml/100ml/min/mIU insulin. Also, the “Net hepatic glucose uptake (Ki)” value in data set [5] (18F-FDG PET during hyperinsulinemic euglycemic clamp) was determined as 0.7 ± 0.2 ml/100ml/min.
Consider `C/C=C(/C)C(=O)O[C@H]1C(C)=C2[C@H]([C@@H]1OC(=O)CCCCCCC)[C@@](C)(OC(C)=O)C[C@H](OC(=O)CCC)[C@@]1(O)[C@H]2OC(=O)[C@@]1(C)O` [thapsigargin], for which, in the data set with INS-1 832/13 cells, the “Decrease of insulin mRNA expression (Ins1 and Ins2)” value is on record as 85%; the “Increase of Atf4 mRNA expression” value is on record as 3.0 fold; the “Increase of Atf6 mRNA expression” value is reported as 1.8 fold; the “Increase of Cebpg mRNA expression” value worked out at 3.7 fold. Besides, the “Increase of Xbp1s mRNA expression” value with INS-1 832/13 cells is on record as 2.9 fold.
With `CCCCCCCCCCCCC/C=C/[C@@H](O)[C@H](CO)NC(C)=O` [C2cer, C2-Cer], in the data set with C2C12 myotubes (at 25 mM glucose), the “Effect on the insulin signal” value was “inhibited completely the insulin signal”.
As to `CCCCCCCC/C=C\CCCCCCCC(=O)O` [OA, oleate], in the data set on INS1E cells (INS1E-ctr cells, 500 μM each fatty acid, MTT), the Cell viability is 91%.
Turning to `CN(C)C(=N)N=C(N)N` [MET, metformin], the “Garcia score (neurological deficit)” value with male Wistar rats is given as 12.0 (6.5; 12.5) points.
Regarding `NCCCC(=O)O` [GABA, Gamma aminobutyric acid], the “Increase of occurrence of cilia Ca2+ flashes” value in data set [6] is 3-4 fold.
Consider `COc1ccc(/C=C/C(=O)c2c(-c3ccccc3)c3ccccc3[nH]c2=O)cc1` [ceranib-2], for which, in the data set on C2C12 myotubes (2 h treatment, ceranib-2 alone), the “Accumulation in total endogenous Cer content” value is 50%.
As for `NCCCC(O)(P(=O)(O)O)P(=O)(O)O` [alendronate], under “ever use”, the “Crude OR of developing type 2 diabetes” value was determined as 0.93 and the “Multiple adjusted OR of developing type 2 diabetes” value worked out at 0.64. Also, the “Adjusted OR of developing type 2 diabetes” value (more than 8 years of use) is recorded as 0.47.
In the case of `NCCC(=O)N[C@@H](Cc1cnc[nH]1)C(=O)O` [carnosine], the “Stimulation of coupled mitochondrial respiration rate in permeabilized muscle fibers, compared to exercise alone” value in [7] (exercise with carnosine) was determined as 36.5%. In [7] (setting [11]), the “Improvement in aerobic fitness (VO2max)” value stood at 14.8% and the “Improvement in metabolic flexibility (ΔRQ)” value is reported as 7.3%. Besides, in data set [7] (training combined with carnosine 2g/day, 3 months), the “Improvement in sit-to-stand test” value amounted to 9.2%.
In the case of `O=C(CO)[C@@H](O)[C@H](O)[C@H](O)CO` [fructose], in data set [8] (HFHS mice), the “contribution of acetyl-CoA to oleate synthesis” value is given as 7 ± 2%, the “contribution of acetyl-CoA to palmitoleate synthesis” value was found to be 7 ± 2% and the “contribution of acetyl-CoA to the synthesis of SFA” value is reported as 18 ± 3%. For the same compound, in data set [8] (HS mice), the “contribution of acetyl-CoA to oleate synthesis” value amounted to 16 ± 3% and the “contribution of acetyl-CoA to palmitoleate synthesis” value worked out at 18 ± 3%. Further, the “contribution of acetyl-CoA to the synthesis of SFA” value in [8] (HS mice, mean ± standard error) is reported as 28 ± 4%.
With `NCC(CC(=O)O)c1ccc(Cl)cc1` (stereo not shown) [Baclofen], the “Increase of occurrence of cilia Ca2+ flashes” value in [6] is listed as 3-4 fold.
On to “glucagon-like peptide 1 (HAEGTFTSDVSSYLEGQAAKEFIAWLVKGR; ends and bridges not checked; UniProt P01275 98-127, looked up) [GLP-1]”, for which the “Reduction of ERK1/2 activation in Arrb2-/- beta cells” value with Arrb2-/- beta cells is ~ 50%.
`CC[C@H](C)[C@H](NC(=O)[C@H](Cc1ccccc1)NC(=O)[C@H](CCC(=O)O)NC(=O)[C@H](CCCCNC(=O)COCCOCCNC(=O)COCCOCCNC(=O)CC[C@H](NC(=O)CCCCCCCCCCCCCCCCC(=O)O)C(=O)O)NC(=O)[C@H](C)NC(=O)[C@H](C)NC(=O)[C@H](CCC(N)=O)NC(=O)CNC(=O)[C@H](CCC(=O)O)NC(=O)[C@H](CC(C)C)NC(=O)[C@H](Cc1ccc(O)cc1)NC(=O)[C@H](CO)NC(=O)[C@H](CO)NC(=O)[C@@H](NC(=O)[C@H](CC(=O)O)NC(=O)[C@H](CO)NC(=O)[C@@H](NC(=O)[C@H](Cc1ccccc1)NC(=O)[C@@H](NC(=O)CNC(=O)[C@H](CCC(=O)O)NC(=O)C(C)(C)NC(=O)[C@@H](N)Cc1cnc[nH]1)[C@@H](C)O)[C@@H](C)O)C(C)C)C(=O)N[C@@H](C)C(=O)N[C@@H](Cc1c[nH]c2ccccc12)C(=O)N[C@@H](CC(C)C)C(=O)N[C@H](C(=O)N[C@@H](CCCNC(=N)N)C(=O)NCC(=O)N[C@@H](CCCNC(=N)N)C(=O)NCC(=O)O)C(C)C` [SEMA, semaglutide]: in data set [9], the Diarrhoea was determined as 12%, the Nausea worked out at 18% and the Vomiting is 8%.
Basal insulin Fc [BIF]: the “HbA1c reduction from baseline to Week 32, mean±SE” value in [10] (BIF-A1, fasting glucose target ≤7.8 mmol/L) is given as 0.6±0.1%; in data set [10] (BIF-A2, fasting glucose target ≤6.7 mmol/L), 0.6±0.1%.
For the compound `CCCCCCCCCCCCCCCC(=O)O` [PA, palmitate], the “Viability decrease stronger than in INS1E-ctr” value in the data set on INS1E cells (INS1E-SPL cells, 500 μM) was ~ 25%. Moreover, the Cell viability loss in the data set on INS1E cells (INS1E-SPP cells, 500 μM) was 20%.
In the case of `C=CC(N)CCC(=O)O` (stereo not shown) [Vigabatrin], the “Increase of occurrence of cilia Ca2+ flashes” value in data set [6] is recorded as 3-4 fold.

These data come from article PMC8408311 (Diabetologia, 2021).
